Measured values published in patent US9809623B2, “α4β7 peptide monomer and dimer antagonists” (Protagonist Therapeutics, Inc., priority 2014, dated 2017).
Where two headings read alike, the source gives them in different places. Numbered stars: 1 amine (or outer) side, 2 acyl side, 3 side chain; on linkers, the order of the positions; unused ones are H or OH. Bridge positions count the residues as written; N and C are the ends. Square brackets hold non-standard residues; d marks the D form. Peptide text beside a SMILES is read from it. I, II: the chains in the order shown. X3 = O=C(COCC(=O)NCCC(=O)[*:2])NCCC(=O)[*:1]; Bip = N[C@@H](Cc1ccc(-c2ccccc2)cc1)C(=O)O; 1Nal = N[C@@H](Cc1cccc2ccccc12)C(=O)O; 2Nal = N[C@@H](Cc1ccc2ccccc2c1)C(=O)O; Diglycolyl = O=C(COCC(=O)[*:2])[*:1]; NMeR = CN[C@@H](CCCNC(=N)N)C(=O)O; β3hE = N[C@@H](CCC(=O)O)CC(=O)O; NMeK = CN[C@@H](CCCCN)C(=O)O; Pen = CC(C)(S)[C@H](N)C(=O)O; dNMeK = CN[C@H](CCCCN)C(=O)O

How the values were obtained:
rh integrin α4β7 = target: T1, rh integrin α4β7 (Homo sapiens, UniProt P13612+P26010); test: α4β7-MAdCAM Competition ELISA; assay type: binding; details: Table 3-B, Potency (α4β7); range classes; read-out: α4β7 ELISA IC50
T1 construct: purchased R&D Systems 5397-A30
T1 sequence (P13612 34-977 limits assumed): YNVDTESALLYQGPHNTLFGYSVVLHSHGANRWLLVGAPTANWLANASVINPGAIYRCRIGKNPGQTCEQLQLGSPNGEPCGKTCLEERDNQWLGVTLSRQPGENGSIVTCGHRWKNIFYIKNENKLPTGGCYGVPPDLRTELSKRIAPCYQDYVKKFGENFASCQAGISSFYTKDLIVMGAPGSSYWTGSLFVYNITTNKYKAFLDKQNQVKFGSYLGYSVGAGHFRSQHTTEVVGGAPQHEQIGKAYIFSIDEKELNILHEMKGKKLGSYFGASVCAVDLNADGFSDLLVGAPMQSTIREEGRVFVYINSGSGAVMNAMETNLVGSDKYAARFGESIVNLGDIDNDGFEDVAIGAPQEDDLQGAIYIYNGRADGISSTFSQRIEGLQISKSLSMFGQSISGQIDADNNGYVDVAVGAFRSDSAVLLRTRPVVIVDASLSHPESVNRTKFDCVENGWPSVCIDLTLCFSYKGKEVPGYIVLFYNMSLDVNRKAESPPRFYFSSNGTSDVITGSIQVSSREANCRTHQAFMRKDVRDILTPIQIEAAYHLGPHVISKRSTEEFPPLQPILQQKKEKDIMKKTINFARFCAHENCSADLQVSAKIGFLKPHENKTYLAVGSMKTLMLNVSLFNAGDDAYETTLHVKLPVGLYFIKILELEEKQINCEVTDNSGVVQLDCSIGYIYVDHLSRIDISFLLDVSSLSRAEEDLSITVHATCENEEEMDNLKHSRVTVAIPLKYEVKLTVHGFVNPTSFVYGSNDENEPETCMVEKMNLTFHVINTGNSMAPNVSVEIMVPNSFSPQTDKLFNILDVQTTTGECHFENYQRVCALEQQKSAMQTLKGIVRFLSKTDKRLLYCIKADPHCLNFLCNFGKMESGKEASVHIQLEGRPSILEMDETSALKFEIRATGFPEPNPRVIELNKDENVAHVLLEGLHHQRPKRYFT
T1 sequence (P26010 20-723 limits assumed): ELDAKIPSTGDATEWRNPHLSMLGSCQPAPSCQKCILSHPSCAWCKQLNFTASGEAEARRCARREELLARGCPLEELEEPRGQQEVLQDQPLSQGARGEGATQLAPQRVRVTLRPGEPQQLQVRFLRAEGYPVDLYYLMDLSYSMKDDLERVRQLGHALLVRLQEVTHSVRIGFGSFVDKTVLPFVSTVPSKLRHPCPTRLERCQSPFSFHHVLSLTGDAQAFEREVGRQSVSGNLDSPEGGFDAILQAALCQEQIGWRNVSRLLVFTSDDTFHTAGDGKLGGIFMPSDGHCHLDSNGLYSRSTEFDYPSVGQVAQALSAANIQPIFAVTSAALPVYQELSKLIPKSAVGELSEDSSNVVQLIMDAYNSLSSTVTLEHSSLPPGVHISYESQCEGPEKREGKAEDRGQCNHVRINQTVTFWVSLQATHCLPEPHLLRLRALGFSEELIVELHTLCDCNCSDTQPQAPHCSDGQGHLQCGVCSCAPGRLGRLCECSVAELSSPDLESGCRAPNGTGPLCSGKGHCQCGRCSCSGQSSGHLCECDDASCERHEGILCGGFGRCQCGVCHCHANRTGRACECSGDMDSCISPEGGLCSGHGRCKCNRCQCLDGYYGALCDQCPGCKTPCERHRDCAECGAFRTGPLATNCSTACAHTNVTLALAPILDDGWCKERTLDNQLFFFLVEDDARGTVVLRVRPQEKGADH
Outline: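 Recombinant human α4β7 was captured on nickel plates at 800 ng/well. Peptide in 3-fold serial dilution (final top 10 μM) competed with MAdCAM-1 (final 10 nM) for 1 h at room temperature in 50 mM Tris pH 7.6, 150 mM NaCl, 1 mM MnCl2 or MgCl2. Bound MAdCAM-1 was detected with anti-human IgG1-HRP/TMB at A450.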

α4β1 = target: T2, α4β1 (Homo sapiens, UniProt P05556+P13612, DEL729-798); test: α4β1-VCAM Competition ELISA; assay type: binding; details: Table 3-B, Selectivity (α4β1); range classes; read-out: α4β1 ELISA IC50
T2 construct: purchased R&D Systems 5668-A4
T2 sequence (P13612 34-977 limits assumed, stated change not applied): as the sequence (P13612 34-977 limits assumed) above
T2 sequence (P05556 21-728 limits assumed, stated change not applied): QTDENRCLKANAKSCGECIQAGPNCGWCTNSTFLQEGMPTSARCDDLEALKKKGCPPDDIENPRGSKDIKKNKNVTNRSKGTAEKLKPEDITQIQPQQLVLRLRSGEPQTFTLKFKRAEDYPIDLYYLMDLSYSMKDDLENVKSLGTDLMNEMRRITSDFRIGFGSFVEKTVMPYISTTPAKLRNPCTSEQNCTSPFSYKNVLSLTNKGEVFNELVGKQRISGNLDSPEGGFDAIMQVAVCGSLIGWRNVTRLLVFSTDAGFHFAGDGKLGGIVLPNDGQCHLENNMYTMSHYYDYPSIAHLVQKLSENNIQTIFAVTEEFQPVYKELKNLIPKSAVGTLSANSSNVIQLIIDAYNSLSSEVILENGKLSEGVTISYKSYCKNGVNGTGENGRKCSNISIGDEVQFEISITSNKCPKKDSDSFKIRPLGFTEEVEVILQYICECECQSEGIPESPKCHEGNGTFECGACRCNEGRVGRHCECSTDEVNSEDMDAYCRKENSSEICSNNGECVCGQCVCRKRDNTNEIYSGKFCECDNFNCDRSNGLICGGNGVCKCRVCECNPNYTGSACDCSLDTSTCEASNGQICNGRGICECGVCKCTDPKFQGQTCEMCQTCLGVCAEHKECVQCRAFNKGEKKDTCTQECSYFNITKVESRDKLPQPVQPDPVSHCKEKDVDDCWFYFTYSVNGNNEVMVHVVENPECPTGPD
Protocol: A Nunc MaxiSorp plate was coated with rh VCAM-1/CD106 Fc chimera (R&D #862-VC) at 400 ng/well in 50 ul per well in 1×PBS and incubated overnight at 4° C. The solution was removed by shaking and then blocked with 250 ul of 1% BSA in 1×PBS per well. The wells were then incubated at room temperature for 1 hr with shaking. Each well was then washed once with wash buffer (50 mM Tris-HCl pH7.6, 100 mM NaCL, 1 mM MnCl2 or MgCl2, 0.05% Tween-20). 25 ul of serial dilutions of peptides starting at 200 μM in assay buffer (Assay buffer: 50 mM Tris-HCl pH7.6, 100 mM NaCl, 1 mM MnCl2 or MgCl2, 0.05% Tween-20) was added to each well. Additionally, 25 ul of α4β1 (R&D Systems #5668-A4) was added to each well at a fixed concentration of 120 nM. The final peptide and α4β1 concentrations were 100 μM and 60 nM, respectively. The plates were then incubated at 37° C. for 2 hr. The solution was then removed by shaking, and each well was washed three times with wash buffer. 50 ul of 9F10 antibody at 4 ug/ml (purified mouse anti-human CD49d, BD Bioscience Cat#555502) was then added to each well, and the plate was incubated at room temperature for 1 hr with shaking. The solution was again removed by shaking, and each well was washed three times with wash buffer. 50 ul of peroxidase-conjugated AffiniPure Goat anti-mouse IgG (Jackson immune research cat #115-035-003) diluted in 1:5000 in assay buffer was added to each well. The plate was incubated at room temperature for 30 min with shaking. Each well was then washed 3 times with wash buffer. 100 ul of TMB was then added to each well and closely observe during developing time. The reaction was stepped with 2N H2SO4 and absorbance was read at 450 nm.

[1] = Simulated Intestinal Fluid (SIF) Stability Assay; assay type: in vitro ADME, porcine; details: pig, pH 6.5, Table 3-B, > means experiment was stopped at that time and half life was not reached, read-out: Stabilty SIF t1/2
Outline: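 Peptides (22 μM final) incubated at 37 °C in FASSIF (pH 6.5) with 1% porcine pancreatin; aliquots quenched at various times and analyzed by LC-MS/MS against internal standard. Half-life from first-order exponential decay fit of percent remaining.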

α4β7 = α4β7 (Homo sapiens, UniProt P13612+P26010); test: α4β7-MAdCAM Cell Adhesion Assay (RPMI 8866 human cells); assay type: cell-based; design: host or cells: RPMI 8866 human B lymphoblastoid cells; details: Table 3-B, Potency (α4β7); range classes; read-out: α4β7 cell (Hu) IC50
α4β7, sequence (P13612 34-1032): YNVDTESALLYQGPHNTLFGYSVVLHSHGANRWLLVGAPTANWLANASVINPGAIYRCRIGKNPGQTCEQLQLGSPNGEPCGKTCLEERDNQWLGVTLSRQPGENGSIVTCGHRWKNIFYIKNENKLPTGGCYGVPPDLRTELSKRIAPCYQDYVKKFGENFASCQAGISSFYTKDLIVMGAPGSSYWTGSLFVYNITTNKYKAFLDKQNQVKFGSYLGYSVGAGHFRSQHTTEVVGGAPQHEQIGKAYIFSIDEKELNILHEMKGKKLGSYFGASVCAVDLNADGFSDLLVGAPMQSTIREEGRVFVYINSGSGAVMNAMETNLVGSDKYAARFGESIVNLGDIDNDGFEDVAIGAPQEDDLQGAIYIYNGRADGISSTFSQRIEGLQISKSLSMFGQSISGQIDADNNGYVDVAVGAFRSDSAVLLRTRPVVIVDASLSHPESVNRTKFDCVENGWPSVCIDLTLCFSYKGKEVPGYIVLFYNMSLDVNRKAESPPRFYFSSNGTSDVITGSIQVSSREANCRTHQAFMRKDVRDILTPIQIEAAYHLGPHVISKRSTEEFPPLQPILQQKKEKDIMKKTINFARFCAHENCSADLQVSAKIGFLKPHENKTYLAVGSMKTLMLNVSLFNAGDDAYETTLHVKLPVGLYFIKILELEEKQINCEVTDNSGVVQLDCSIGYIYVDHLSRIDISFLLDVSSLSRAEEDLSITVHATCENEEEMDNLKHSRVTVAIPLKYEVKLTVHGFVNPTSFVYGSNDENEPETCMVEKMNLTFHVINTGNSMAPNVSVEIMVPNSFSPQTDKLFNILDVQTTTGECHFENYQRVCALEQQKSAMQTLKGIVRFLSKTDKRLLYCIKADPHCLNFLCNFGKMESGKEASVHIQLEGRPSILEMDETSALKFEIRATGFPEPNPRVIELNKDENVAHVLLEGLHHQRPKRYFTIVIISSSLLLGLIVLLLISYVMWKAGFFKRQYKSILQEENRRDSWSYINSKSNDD
α4β7, sequence (P26010 20-798): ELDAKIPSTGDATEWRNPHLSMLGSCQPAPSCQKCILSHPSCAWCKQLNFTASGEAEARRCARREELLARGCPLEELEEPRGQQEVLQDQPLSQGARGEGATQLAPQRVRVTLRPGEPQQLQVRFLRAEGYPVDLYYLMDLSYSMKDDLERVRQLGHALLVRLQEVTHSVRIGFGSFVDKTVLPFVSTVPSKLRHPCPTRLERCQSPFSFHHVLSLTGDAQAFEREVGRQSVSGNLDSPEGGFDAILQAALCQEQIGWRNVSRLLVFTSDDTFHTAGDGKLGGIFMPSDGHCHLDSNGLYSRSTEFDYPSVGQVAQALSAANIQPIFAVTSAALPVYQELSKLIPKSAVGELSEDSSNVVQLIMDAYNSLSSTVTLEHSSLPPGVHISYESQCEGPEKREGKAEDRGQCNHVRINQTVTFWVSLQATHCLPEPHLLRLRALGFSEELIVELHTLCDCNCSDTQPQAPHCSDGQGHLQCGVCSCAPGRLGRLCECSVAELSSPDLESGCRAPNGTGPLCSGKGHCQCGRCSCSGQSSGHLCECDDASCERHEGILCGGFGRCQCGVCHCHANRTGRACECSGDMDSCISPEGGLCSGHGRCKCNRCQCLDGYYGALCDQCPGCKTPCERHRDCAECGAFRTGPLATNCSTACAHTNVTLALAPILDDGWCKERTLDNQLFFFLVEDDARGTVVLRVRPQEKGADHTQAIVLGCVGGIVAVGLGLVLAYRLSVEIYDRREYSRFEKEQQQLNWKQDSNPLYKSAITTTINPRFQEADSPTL
Outline: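 Washed RPMI 8866 cells (200,000/well) in DMEM with 0.1% BSA, 10 mM HEPES pH 7, 1 mM MnCl2 adhered to rh MAdCAM-1/Fc-coated wells with serially diluted peptides, 30-45 min at 37 °C. After three washes, bound cells quantified by MTT, A570, cell-free background subtracted for dose response.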

[2] = simulated intestinal fluid (SIF) with 1% porcine pancreatin

Structure (SMILES): CC(=O)N[C@@H]1C(=O)N(C)[C@@H](CCCNC(=N)N)C(=O)N[C@@H](CO)C(=O)N[C@@H](CC(=O)O)C(=O)N[C@@H]([C@@H](C)O)C(=O)N[C@@H](CC(C)C)C(=O)N[C@H](C(=O)N[C@@H](Cc2cccc3ccccc23)C(=O)N[C@@H](CCC(=O)O)C(=O)N(C)[C@H](CCCCN)C(N)=O)C(C)(C)SSC1(C)C [compound 18] (Ac-[Pen][NMeR]SDTL[Pen][1Nal]E[dNMeK]-NH2; disulfide 1-7)
- IC50 (rh integrin α4β7): 10 to 25 nM
- IC50 (α4β1): 500 to 1000 nM

Structure (SMILES): CC(=O)N[C@@H]1C(=O)N(C)[C@@H](CCCNC(=N)N)C(=O)N[C@@H](CO)C(=O)N[C@@H](CC(=O)O)C(=O)N[C@@H]([C@@H](C)O)C(=O)N[C@@H](CC(C)C)C(=O)N[C@H](C(=O)N[C@@H](Cc2ccc(O)cc2)C(=O)N[C@@H](CCC(=O)O)C(=O)N[C@H](CCCCNC(=O)COCC(=O)NCCCC[C@@H](NC(=O)[C@H](CCC(=O)O)NC(=O)[C@H](Cc2ccc(O)cc2)NC(=O)[C@H]2NC(=O)[C@H](CC(C)C)NC(=O)[C@H]([C@@H](C)O)NC(=O)[C@H](CC(=O)O)NC(=O)[C@H](CO)NC(=O)[C@H](CCCNC(=N)N)N(C)C(=O)[C@@H](NC(C)=O)C(C)(C)SSC2(C)C)C(N)=O)C(N)=O)C(C)(C)SSC1(C)C [compound 22] (I: Ac-[Pen][NMeR]SDTL[Pen]YE[dK]-NH2 / II: Ac-[Pen][NMeR]SDTL[Pen]YE[dK]-NH2; disulfide I:1-I:7, II:1-II:7; linker I:10-II:10 via Diglycolyl)
- half-life at 22 μM [1, 2]: < 20 min
- IC50 (rh integrin α4β7): < 10 nM
- IC50 (α4β7): < 10 nM
- IC50 (α4β1): 100 to 500 nM

Structure (SMILES): CC(=O)N[C@@H]1C(=O)N(C)[C@@H](CCCNC(=N)N)C(=O)N[C@@H](CO)C(=O)N[C@@H](CC(=O)O)C(=O)N[C@@H]([C@@H](C)O)C(=O)N[C@@H](CC(C)C)C(=O)N[C@H](C(=O)N[C@@H](Cc2ccc3ccccc3c2)C(=O)N[C@@H](Cc2ccc(O)cc2)C(=O)N[C@H](CCCCNC(=O)COCC(=O)NCCCC[C@@H](NC(=O)[C@H](Cc2ccc(O)cc2)NC(=O)[C@H](Cc2ccc3ccccc3c2)NC(=O)[C@H]2NC(=O)[C@H](CC(C)C)NC(=O)[C@H]([C@@H](C)O)NC(=O)[C@H](CC(=O)O)NC(=O)[C@H](CO)NC(=O)[C@H](CCCNC(=N)N)N(C)C(=O)[C@@H](NC(C)=O)C(C)(C)SSC2(C)C)C(N)=O)C(N)=O)C(C)(C)SSC1(C)C [compound 23] (I: Ac-[Pen][NMeR]SDTL[Pen][2Nal]Y[dK]-NH2 / II: Ac-[Pen][NMeR]SDTL[Pen][2Nal]Y[dK]-NH2; disulfide I:1-I:7, II:1-II:7; linker I:10-II:10 via Diglycolyl)
- half-life at 22 μM [1, 2]: < 20 min
- IC50 (α4β7): < 10 nM
- IC50 (α4β1): 100 to 500 nM

Structure (SMILES): CC(C)C[C@@H]1NC(=O)[C@H]([C@@H](C)O)NC(=O)[C@H](CC(=O)O)NC(=O)[C@H](CO)NC(=O)[C@H](CCCNC(=N)N)N(C)C(=O)[C@@H](NC(=O)CCNC(=O)COCC(=O)NCCC(=O)N[C@@H]2C(=O)N(C)[C@@H](CCCNC(=N)N)C(=O)N[C@@H](CO)C(=O)N[C@@H](CC(=O)O)C(=O)N[C@@H]([C@@H](C)O)C(=O)N[C@@H](CC(C)C)C(=O)N[C@H](C(=O)N[C@@H](Cc3c[nH]c4ccccc34)C(=O)N[C@@H](CCC(=O)O)C(N)=O)C(C)(C)SSC2(C)C)C(C)(C)SSC(C)(C)[C@@H](C(=O)N[C@@H](Cc2c[nH]c3ccccc23)C(=O)N[C@@H](CCC(=O)O)C(N)=O)NC1=O [compound 54] (I: [Pen][NMeR]SDTL[Pen]WE-NH2 / II: [Pen][NMeR]SDTL[Pen]WE-NH2; disulfide I:1-I:7, II:1-II:7; linker I:N-II:N via X3)
- half-life at 22 μM ([1]; simulated intestinal fluid (SIF) with porcine pancreatin): 32 min
- IC50 (α4β7): 25 to 50 nM
- IC50 (α4β1): 100 to 500 nM

Structure (SMILES): CC(=O)N[C@@H]1C(=O)N(C)[C@@H](CCCNC(=N)N)C(=O)N[C@@H](CO)C(=O)N[C@@H](CC(=O)O)C(=O)N[C@@H]([C@@H](C)O)C(=O)N[C@@H](CC(C)C)C(=O)N[C@H](C(=O)N[C@@H](Cc2ccc(-c3ccccc3)cc2)C(=O)N[C@@H](CCC(=O)O)C(=O)N[C@H](CCCCNC(=O)COCC(=O)NCCCC[C@@H](NC(=O)[C@H](CCC(=O)O)NC(=O)[C@H](Cc2ccc(-c3ccccc3)cc2)NC(=O)[C@H]2NC(=O)[C@H](CC(C)C)NC(=O)[C@H]([C@@H](C)O)NC(=O)[C@H](CC(=O)O)NC(=O)[C@H](CO)NC(=O)[C@H](CCCNC(=N)N)N(C)C(=O)[C@@H](NC(C)=O)C(C)(C)SSC2(C)C)C(N)=O)C(N)=O)C(C)(C)SSC1(C)C [compound 134] (I: Ac-[Pen][NMeR]SDTL[Pen][Bip]E[dK]-NH2 / II: Ac-[Pen][NMeR]SDTL[Pen][Bip]E[dK]-NH2; disulfide I:1-I:7, II:1-II:7; linker I:10-II:10 via Diglycolyl)
- IC50 (rh integrin α4β7): < 10 nM
- IC50 (α4β7): < 10 nM
- IC50 (α4β1): 100 to 500 nM

Structure (SMILES): CC(=O)N[C@@H]1C(=O)N(C)[C@@H](CCCNC(=N)N)C(=O)N[C@@H](CO)C(=O)N[C@@H](CC(=O)O)C(=O)N[C@@H]([C@@H](C)O)C(=O)N[C@@H](CC(C)C)C(=O)N[C@H](C(=O)N[C@@H](Cc2ccc3ccccc3c2)C(=O)N[C@@H](CCC(=O)O)CC(=O)N[C@H](CCCCNC(=O)COCC(=O)NCCCC[C@@H](NC(=O)C[C@H](CCC(=O)O)NC(=O)[C@H](Cc2ccc3ccccc3c2)NC(=O)[C@H]2NC(=O)[C@H](CC(C)C)NC(=O)[C@H]([C@@H](C)O)NC(=O)[C@H](CC(=O)O)NC(=O)[C@H](CO)NC(=O)[C@H](CCCNC(=N)N)N(C)C(=O)[C@@H](NC(C)=O)C(C)(C)SSC2(C)C)C(N)=O)C(N)=O)C(C)(C)SSC1(C)C [compound 137] (I: Ac-[Pen][NMeR]SDTL[Pen][2Nal][β3hE][dK]-NH2 / II: Ac-[Pen][NMeR]SDTL[Pen][2Nal][β3hE][dK]-NH2; disulfide I:1-I:7, II:1-II:7; linker I:10-II:10 via Diglycolyl)
- IC50 (rh integrin α4β7): < 10 nM
- IC50 (α4β7): < 10 nM
- IC50 (α4β1): 1000 to 10000 nM

Structure (SMILES): CC(=O)N[C@@H]1C(=O)N(C)[C@@H](CCCNC(=N)N)C(=O)N[C@@H](CO)C(=O)N[C@@H](CC(=O)O)C(=O)N[C@@H]([C@@H](C)O)C(=O)N[C@@H](CC(C)C)C(=O)N[C@H](C(=O)N[C@@H](Cc2c[nH]c3ccccc23)C(=O)N[C@@H](CCC(=O)O)CC(=O)N(C)[C@@H](CCCCNC(=O)COCC(=O)NCCCC[C@@H](C(N)=O)N(C)C(=O)C[C@H](CCC(=O)O)NC(=O)[C@H](Cc2c[nH]c3ccccc23)NC(=O)[C@H]2NC(=O)[C@H](CC(C)C)NC(=O)[C@H]([C@@H](C)O)NC(=O)[C@H](CC(=O)O)NC(=O)[C@H](CO)NC(=O)[C@H](CCCNC(=N)N)N(C)C(=O)[C@@H](NC(C)=O)C(C)(C)SSC2(C)C)C(N)=O)C(C)(C)SSC1(C)C [compound 141] (I: Ac-[Pen][NMeR]SDTL[Pen]W[β3hE][NMeK]-NH2 / II: Ac-[Pen][NMeR]SDTL[Pen]W[β3hE][NMeK]-NH2; disulfide I:1-I:7, II:1-II:7; linker I:10-II:10 via Diglycolyl)
- IC50 (rh integrin α4β7): < 10 nM
- IC50 (α4β7): < 10 nM
- IC50 (α4β1): 500 to 1000 nM
